{"source": "patent US8178091B2", "about": "“Compositions and methods for the treatment of respiratory disorders” (University of Washington, priority 2007, dated 2012)", "key": {"[1]": {"system": "primary normal human lung fibroblasts", "assay": "apoptosis assay (Cell Death Detection ELISA-plus), lung fibroblasts", "assay_type": "cell-based", "settings": "serum starvation, increasing concentrations; listed as IGF-1R antibody", "experimental": "(§1) A: Normal human lung fibroblast or distal lung epithelial cells were serum-starved overnight and then incubated with indicated concentration of IGF-1R antibody or IGFBP-3 overnight. B: A549 cells were serum-starved and incubated with IGF-1R antibody (136 μg/ml) with or without the indicated concentration of Fas ligand. Apoptosis was measured by Cell Death ELISA-plus ELISA (Roche Applied Science) per the manufacturer's directions. All experiments were done in triplicate and repeated at least twice. Apoptosis index is defined as the ratio of experimental condition OD405 nm: control (media alone) OD405 nm.\n(§2) Primary normal human lung fibroblasts (Clonetics, Cambrex Bioscience, Rockland, Me.), primary distal lung human epithelial cells (Clonetics) or A549 (American Type Culture Collection, Manassas, Va.) were seeded in a 96-well tissue culture plate (2×10^4 cells/well) overnight and serum-starved for 24 hours. […] After 48 hours, apoptosis was measured. To prevent detached cells from being aspirated, plates were centrifuged at 200×g for 10 minutes, and apoptosis was measured using the Cell Death Detection ELISA-plus System (Roche Applied Science, Penzberg, Germany), which detects cytosolic histone-complexed DNA fragments. […]"}, "bleomycin-treated mice": {"system": "bleomycin-treated mice", "assay": "bleomycin-induced lung injury and fibrosis model", "assay_type": "in vivo", "experimental": "ICR male mice are anesthetized under pentobarbital (60 mg/kg, i.v.) anesthesia, the cervical region is shaved and the skin is incised for about 4 mm from under the larynx region along the median line. Next, the muscle layer covering upper trachea is peeled off to expose the trachea. Using a micro-syringe, physiological saline or bleomycin hydrochloride (0.03 mg/animal, manufactured by Nippon Kayaku) is administered tracheally (50 μl/animal) from the tracheal smooth muscle region between cricoid cartilage. After the administration, the incised region is closed and antibiotics are administered into the thigh intramuscularly in order to prevent infection. IGF-1R inhibitor, e.g., antibody to IGF-1 receptor (A12). […] Controls included bleomycin-treated animals receiving saline injection in place of A12 antibody. At various time points after the induction, each animal is sacrificed by exsanguination under pentobarbital anesthesia, and lung tissue is excised to monitor for differences in lung injury in the test versus control groups. In addition, bronchoalveolar lavage is performed, with analysis of the resulting fluid for differences in total protein, cytokines, inflammatory cells and fibroblasts or in the responsiveness of such cells to, e.g., apoptotic or other stimuli. Lung hydroxyproline content is measured as a measure of fibrosis. Changes in lung tissue histology are also monitored. Further details on the processing of lung tissue for analysis include the following. At time of sacrifice, the right main stem bronchus was tied off and the left lung was isolated and lavaged with 1 ml of PBS containing 0.6 mM EDTA warmed to 37° C. Bronchoalveolar lavage fluid (BALF) total cell count was determined by trypan blue exclusion and cell differential was determined on Diff quick (Dade Behring Ag, Düdingen, Switzerland) stained cytospins. Following brief centrifugation, cell-free supernatants were used for measurement of total protein by Bio-Rad protein assay (Bio-Rad laboratories, Hercules, Calif.). […] Hydroxyproline concentration was extrapolated from a standard curve. The right lung was inflated and fixed with 4% formaldehyde at 25 cmH2O pressure for histologic evaluation.\nFor these experiments, the bleomycin-induced lung injury was initiated in the manner described herein above, and the A12 anti-IGF-1R antibody was used for receptor blockade. Mice treated with bleomycin were treated with a monoclonal antibody against the IGF-1 receptor (A12) or vehicle.\nFor statistical analyses of the data, means of more than two groups of data were compared using one-way analysis of variance (ANOVA) with Tukey's honestly significant difference (HSD) post hoc test. In some cases, Kaplan-Meier Survival Analysis was performed using JMP IN v5.1; statistical significance was determined using log rank test."}, "[2]": {"system": "lung cells (TUNEL positive)", "assay": "TUNEL assay on lung sections after bleomycin", "assay_type": "in vivo, mice", "experimental": "For TUNEL assay, tissue sections were deparaffinized using standard protocols and permeabilised with proteinase K (10 μg/ml in 10 mM Tris-HCl) for 30 mins at 37° C. Non-specific binding sites were blocked with 1 mg/ml BSA in 50 mM Tris-HCl for 10 mins at 37° C. TUNEL positive cells were detected with Fluorescein In Situ Cell Death Detection Kit (Roche). Nuclei were counterstained with DAPI. To quantitate apoptosis, at least 2 mice per timepoint were examined and a blinded observer counted number of TUNEL positive cells and DAPI positive cells in 4 independent fields/mouse. At least 500 cells were analyzed per condition."}, "fibroblasts": {"system": "fibroblasts", "assay": "Fas-induced apoptosis, fibroblasts", "assay_type": "cell-based, human", "settings": "data not shown", "experimental": "Primary normal human lung fibroblasts (Clonetics, Cambrex Bioscience, Rockland, Me.), primary distal lung human epithelial cells (Clonetics) or A549 (American Type Culture Collection, Manassas, Va.) were seeded in a 96-well tissue culture plate (2×10^4 cells/well) overnight and serum-starved for 24 hours. Function blocking antibody to the human type 1 IGF receptor (A12), a generous gift from ImClone Systems (New York, N.Y.) (Burtrum D, et al., Cancer Res 63:8912-8921 (2003); Wu J D, et al., Clin Cancer Res 11:3065-3074 (2005)), was added to media at indicated concentration for 24 hours. In some experiments, soluble Fas ligand (Alexis Biochemicals, Lausen, Switzerland) or IGFBP-3 (R&D Systems) was added to cells. […] After 48 hours, apoptosis was measured. To prevent detached cells from being aspirated, plates were centrifuged at 200×g for 10 minutes, and apoptosis was measured using the Cell Death Detection ELISA-plus System (Roche Applied Science, Penzberg, Germany), which detects cytosolic histone-complexed DNA fragments. […] The data are reported as the mean absorbance of triplicate wells mean+SE or as apoptosis index, defined as the ratio of the mean absorbance of triplicate wells in the experimental condition OD405 nm/control (media alone) OD405 nm."}, "epithelial cells (A549)": {"system": "epithelial cells (A549)", "assay": "Fas-induced apoptosis, epithelial cells", "assay_type": "cell-based, human", "settings": "A549, antibody 136 μg/ml with Fas ligand", "experimental": "as §1, §2"}, "IGF-1R": {"system": "IGF-1R", "settings": "murine and human tissues; cited from earlier work"}}, "note": "“Also recorded” adds a separate entry of the source."}
{"substance": "A12: Function blocking antibody to the human type 1 IGF receptor, gift from ImClone Systems", "values": [{"measurement": "apoptosis of primary human lung fibroblasts", "setting": "[1]", "value": "dose-dependent increase in apoptosis; also recorded: increased apoptosis"}, {"measurement": "proportion of mice surviving", "setting": "bleomycin-treated mice; 7-14 days post-bleomycin, A12 40 mg/kg i.p. vs saline", "value": "significantly greater"}, {"measurement": "BALF total protein concentration", "setting": "bleomycin-treated mice; 28 days, vs saline, p=0.16", "value": "trend towards decreased BALF protein concentration"}, {"measurement": "weight loss", "setting": "bleomycin-treated mice; by d14, bleomycin-treated mice", "value": 20, "unit": "%"}, {"measurement": "lung hydroxyproline content (fibrosis)", "setting": "bleomycin-treated mice; day 7 and day 14, vs saline", "value": "no significant differences"}, {"measurement": "lung histology", "setting": "bleomycin-treated mice; day 14, vs saline", "value": "Only subtle histological differences; also recorded: qualitatively less fibrosis"}, {"measurement": "lung histology", "setting": "bleomycin-treated mice; day 28, vs saline", "value": "Reduced evidence of fibrosis; also recorded: better preservation of lung architecture and lung size, and fewer areas of fibrosis"}, {"measurement": "lung hydroxyproline content (fibrosis)", "setting": "bleomycin-treated mice; day 28, vs saline control (p=0.03) or d14 (p=0.001)", "value": "significantly lower lung hydroxyproline levels; also recorded: significantly less hydroxyproline"}, {"measurement": "BALF total protein concentration", "setting": "bleomycin-treated mice; days 7 and 14, vs saline", "value": "no significant difference; also recorded: no difference in BALF protein concentration"}, {"measurement": "survival (Kaplan-Meier)", "setting": "bleomycin-treated mice; n=24 per group, p=0.01 vs saline control", "value": "statistically significant survival benefit"}, {"measurement": "BALF differential cell count", "setting": "bleomycin-treated mice; vs saline", "value": "no significant difference; also recorded: no difference in the cell differential"}, {"measurement": "BALF total cell count", "setting": "bleomycin-treated mice; vs saline", "value": "no significant difference; also recorded: not statistically different"}, {"measurement": "respiratory or systemic distress by body condition scoring", "setting": "bleomycin-treated mice; vs saline control", "value": "less evidence of respiratory or systemic distress"}, {"measurement": "TUNEL-positive (apoptotic) cells in lung", "setting": "[2]; d14, vs vehicle", "value": "increase in TUNEL-positive cells"}, {"measurement": "TUNEL-positive (apoptotic) cells in lung", "setting": "[2]; day 28, vs vehicle", "value": "fewer apoptotic cells"}, {"measurement": "Fas-induced apoptosis of fibroblasts", "setting": "fibroblasts", "value": "did not alter Fas-induced apoptosis"}, {"measurement": "Fas-induced apoptosis of epithelial cells", "setting": "epithelial cells (A549)", "value": "did not alter Fas-induced apoptosis"}, {"measurement": "IGF-1R signaling", "setting": "IGF-1R", "value": "inhibits IGF-1R signaling"}]}
